Experimental data: PMC7456637, “Pharmacokinetic characterization of fluorocoxib D, a cyclooxygenase-2-targeted optical imaging agent for detection of cancer” (Journal of Biomedical Optics, 2020)
“And” between values parts separate entries of the source, which are not always exact repeats. Identical values can stand only once. “Also recorded” adds a separate entry of the source.

Tests used:
[1] = Pilot safety study: serum chemistry profile; assay type: in vivo, dog; settings: 3 days after single dose 1 mg/kg i.v.
Protocol: (§1) The animal studies were performed in the accordance with the University of Tennessee Institutional Animal Care and Use Committee (UT IACUC)-approved protocols and in an accordance with NIH guidelines. Individually housed research healthy female beagle dogs (Covance Research Product) with weights of 6.7 to 10.3 kg were used to assess the safety and pharmacokinetic parameters of fluorocoxib D administrated a dose of 1 mg/kg over 20 min intravenously (i.v.).
(§2) For single dose safety evaluation studies, we administrated fluorocoxib D at 1 mg/kg , i.v. using a preplaced cephalic or saphenous vein catheter over 20 min to six healthy research dogs following protocol as described previously.[38] Briefly, physical examinations for signs of potential drug toxicity were performed before, during, and daily for 3 days after fluorocoxib D administration. Physical assessment included auscultation of heart and lungs, abdominal palpation, body temperature, appetite, attitude, activity levels monitoring, and other health-related events. Hypersensitivity was evaluated by direct observation of each dog during treatment for clinical signs of an allergic reaction (facial swelling, flushing, urticaria, dyspnea, scratching, and changes of heart rates). […] Laboratory evaluations of blood and urine were carried out before and 3 days after fluorocoxib D administration to monitor signs of toxicity. Blood (up to 3 ml) was collected into ethylenediaminetetraacetic acid (EDTA) and heparin-treated tubes, and urine (up to 5 ml) was collected by cystocentesis or from the floor of the runs. The laboratory evaluation consisted of a complete blood count (CBC), serum chemistry profile, and complete urinalysis. The CBC evaluated total white blood cells (WBC) and hematocrit (HCT), in addition to absolute numbers of neutrophils, lymphocytes, monocytes, eosinophils, and platelets. The plasma chemistry profile evaluated blood urea nitrogen (BUN), creatinine, proteins (albumin, globulins, and total proteins), alanine aminotransferase (ALT), total bilirubin, glucose, and electrolytes. The complete urinalysis evaluated urine proteins, glucose, and ketones; a sediment examination and urine-specific gravity were validated as well for any possible signs of renal toxicity of fluorocoxib D. All laboratory tests were carried out at the Veterinary Medical Center of the University of Tennessee in Knoxville.

COX2 = settings: cited from earlier work
[2] = parameters: method as in earlier work; settings: cited from earlier work
[3] = Pharmacokinetics of fluorocoxib D in research dogs, plasma HPLC; assay type: in vivo, dog
Protocol: as §1
To determine the pharmacokinetic parameters of fluorocoxib D ( 1 mg/kg , i.v.) in dogs, blood (2 to 3 ml) was collected from the jugular vein into EDTA-treated tubes at 0, 0.5, 1, 2, 4, 8, and 24 h after compound administration. The blood was centrifuged within 20 min of sample collection. Plasma was removed and stored at −80°C until further HPLC analysis.
Levels of fluorocoxib D were determined in collected canine plasma samples using HPLC at Vanderbilt University (JU). The frozen samples were thawed and extracted with acetonitrile. The organic layer was collected, dried, and reconstituted in methanol and water. The unknown samples were quantitated against a 5-point standard curve, which was prepared by mixing known quantities of fluorocoxib D with commercial canine plasma (Sigma-Aldrich) and subjecting the resulting samples to liquid–liquid extraction and HPLC. Samples were analyzed using a reverse-phase column (C18, 5×0.2 cm , Phenomenex) with gradient elution. The mobile phase component A was water, and B was acetonitrile, each containing 0.1% acetic acid. The gradient was 50% B to 90% B over 5 min, followed by a brief hold and return to initial conditions. The flow rate was 0.3 ml/min .
The pharmacokinetic parameters for fluorocoxib D were estimated from the plasma concentration-time data by a nonlinear mixed effects approach, as implemented with Monolix 4.1.2 (Lixoft S.A.S., Orsay, France). This approach allowed analyzing data from all animals at the same time and was ideal for relatively sparse datasets like the one used in this study. The plasma clearance (Cl), representing the overall ability of the body to eliminate fluorocoxib D, was determined by scaling its elimination rate (amount per time) by the corresponding plasma concentration level. The volume of distribution (Vd) was defined as the ratio of the total amount of fluorocoxib D in the body to the blood plasma concentration. The Cl and Vd were estimated directly from the study population data. The peak concentration in plasma ( Cmax ) and the following pharmacokinetic parameters were obtained by averaging the corresponding post-hoc Bayesian estimates. The individual partial areas under the curve between times 0 and 8 h ( AUC0−8 ) and the AUC0−∞ with extrapolation to infinity were calculated using the log-linear trapezoidal rule, as implemented with WinNonlin 5.1 (Pharsight, Mountain View, California). The mean residence time (MRT) value was determined as the ratio of the area under the first moment curve over AUC0−∞ . The elimination rate constant was determined as the slope obtained by linear regression of the terminal log-linear portion of the concentration versus time curve, and the elimination half-life ( t1/2 ) was then calculated. The plasma concentration graphs were generated using calculated averaged plasma concentrations of fluorocoxib D from six dogs after 1 mg/kg i.v. of fluorocoxib D administration performed over 20 min.

[4] = Pilot safety study: complete urinalysis; assay type: in vivo, dog
Protocol: as §1, §2

[5] = tested on: COX-2-expressing human 5637 cancer cells; assay: Fluorocoxib D uptake by human 5637 cancer cells (fluorescence microscopy); assay type: cell-based; settings: 50 nM, 30 min, COX-2-positive 5637 cells
Protocol: Human 5637 cells were seeded on four-chamber slides (Nalge Nunc, Rochester, New York) and grown until reached 70% to 80% confluence. […] The nuclei of cells were stained with DAPI for 10 min, and slides were mounted using an aqueous mounting medium. Images of cells were captured by a Leica DMi8 fluorescent microscope with Hamamatsu Orca Flash 4.0LT Digital CMOS Camera (Leica Microsystems Inc., Chicago, Illinois) using Leica Application Suite X software (LASX, Leica).

[6] = Pilot safety study: physical examination and adverse events; assay type: in vivo, dog
Protocol: as §1
as §2, with “Blood (up to 3 ml) was collected into ethylenediaminetetraacetic acid (EDTA) and heparin-treated tubes, and urine (up to 5 ml) was collected by cystocentesis or from the floor of the runs. The laboratory evaluation consisted of a complete blood count (CBC), serum chemistry profile, and complete urinalysis.” left out

[7] = female, beagle, dog, plasma, iv, 1 mg/kg i.v., six research dogs, mean ± S.D.
[8] = 3 days after single dose 1 mg/kg i.v., individual dogs, reference NEG, 1 mg/kg

COc1ccc2c(c1)c(CC(=O)NCCCCNC(=O)c1ccc(C3=c4cc5c6c(c4Oc4c3cc3c7c4CCCN7CCC3)CCC[N+]=6CCC5)cc1)c(C)n2C(=O)c1ccc(Cl)cc1 [Fluorocoxib D, N -[(rhodamin-X-yl)but-4-yl]-2-[1-(4-chlorobenzoyl)-5-methoxy-2-methyl-1H-indol-3-yl]acetamide]
TOT BILI (total bilirubin), After ([1]; dogs #1, #3, #6, reference range 0.1 to 0.6): 0.1 mg/dL | CREATI (creatinine), After ([1]; individual dogs #1-#6, reference range 0.3 to 1.1, 1 mg/kg): 0.8 mg/dL (3×) and 0.6 mg/dL (3×) | MAG (magnesium), After ([1]; individual dogs #1-#6, reference range 0.65 to 0.98, 1 mg/kg): 0.7 mmol/L (4×) and 0.8 mmol/L (2×) | GLOB (globulin), After ([1]; individual dogs #1-#6, reference range 1.9 to 3.1, 1 mg/kg): 2.3 g/dL (2×) and 2 g/dL (2×) and 2.6 g/dL and 2.1 g/dL | PHOS (phosphorus), After ([1]; individual dogs #1-#6, reference range 2.5 to 5.9, 1 mg/kg): 3.5 mg/dL and 4.3 mg/dL and 3.3 mg/dL and 3.9 mg/dL and 3.4 mg/dL and 3.6 mg/dL | POTAS (potassium), After ([1]; individual dogs #1-#6, reference range 2.8 to 4.7, 1 mg/kg): 3.9 mEq/L and 4.2 mEq/L and 3.7 mEq/L (2×) and 3.5 mEq/L and 3.8 mEq/L | ALBUM (albumin), After ([1]; individual dogs #1-#6, reference range 3.2 to 4.3, 1 mg/kg): 3.1 L g/dL and 3.4 g/dL (2×) and 3 L g/dL and 3.5 g/dL and 3.3 g/dL | TOT. PROT (total proteins), After ([1]; individual dogs #1-#6, reference range 5.4 to 6.8, 1 mg/kg): 5.4 g/dL (2×) and 5.7 g/dL and 5.6 g/dL (2×) and 5.2 L g/dL | BUN (blood urea nitrogen), After ([1]; individual dogs #1-#6, reference range 7 to 37, 1 mg/kg): 12 mg/dL and 17 mg/dL (2×) and 14 mg/dL and 16 mg/dL and 19 mg/dL | CAL (calcium), After ([1]; individual dogs #1-#6, reference range 10 to 12, 1 mg/kg): 9.5 L mg/dL and 10 mg/dL and 9.9 L mg/dL and 9.7 L mg/dL and 10.3 mg/dL and 9.4 L mg/dL | ALT (alanine aminotransferase), After ([1]; individual dogs #1-#6, reference range 18 to 100, 1 mg/kg): 26 U/L (2×) and 23 U/L and 22 U/L (2×) and 25 U/L | GLUCO (glucose), After ([1]; individual dogs #1-#6, reference range 82 to 132, 1 mg/kg): 94 mg/dL and 103 mg/dL and 100 mg/dL and 91 mg/dL and 105 mg/dL and 110 mg/dL | CHLOR (chlorine), After ([1]; individual dogs #1-#6, reference range 112 to 119, 1 mg/kg): 111 L mEq/L and 114 mEq/L (2×) and 113 mEq/L and 112 mEq/L and 116 mEq/L | SOD (sodium), After ([1]; individual dogs #1-#6, reference range 141 to 147, 1 mg/kg): 144 mEq/L and 146 mEq/L (2×) and 147 mEq/L (2×) and 148 H mEq/L | IC50 (COX2): 230 nM | Ratio (COX1/COX2) (COX2; ratio of IC50 values): 17.4 | Water solubility compared to fluorocoxib A [2]: improved water solubility | Peak concentration in plasma ([3]; 1 mg/kg i.v. over 20 min, dogs, HPLC): 114.8 ± 50.5 ng/mL | Detection in plasma after 4 h following administration ([3]; 1 mg/kg i.v., dogs, HPLC): No fluorocoxib D was detected; also recorded: No detectable levels | Tmax ([3]; female, beagle, dog, plasma, iv, 1 mg/kg i.v. over 20 min, dogs, read-out: Time of peak plasma concentration after administration): 30 min | Cmax ([3]; female, beagle, dog, plasma, iv, 1 mg/kg i.v. over 20 min, six research dogs, mean ± S.D.): 110 ± 50 ng/mL | AUC(0-inf) [3, 7]: 150 ± 50 ng·h/mL | MRT [3, 7]: 87.6 ± 25.2 min | AUC(0-t) ([3]; female, beagle, dog, plasma, iv, 1 mg/kg i.v., six research dogs, mean ± S.D., read-out: AUC0-8): 110 ± 40 ng·h/mL | clearance ([3]; female, beagle, dog, plasma, iv, 1 mg/kg i.v., six research dogs, mean ± S.D., read-out: Cl (clearance) (converted)): 123 mL/min/kg | Vd ([3]; female, beagle, dog, plasma, iv, 1 mg/kg i.v., six research dogs, mean ± S.D., read-out: Vdarea (volume of distribution)): 9.97 ± 4.76 L/kg | half-life ([3]; female, beagle, dog, plasma, iv, 1 mg/kg i.v., six research dogs, mean ± S.D., read-out: t1/2 (terminal/elimination half-life) (converted)): 54.6 ± 17.4 min | SP. GRAV (urine-specific gravity), After ([4]; 3 days after single dose 1 mg/kg i.v., individual dogs, 1 mg/kg): 1.03 and 1.039 (2×) and 1.032 and 1.044 | GLU-COSE (urine), After ([4]; 3 days after single dose 1 mg/kg i.v., individual dogs, reference NEG): NEG | PRO-TEIN (urine), After ([4]; 3 days after single dose 1 mg/kg i.v., individual dogs, reference NEG-1+, 1 mg/kg): NEG (3×) and TRACE | BLD/Hb (urine blood/hemoglobin), After [4, 8]: NEG (2×) and TRACE (2×) | KETO-NES (urine), After [4, 8]: NEG (3×) and TRACE (2×) | PH (urine pH), After ([4]; 3 days after single dose 1 mg/kg i.v., individual dogs, reference range 5 to 9, 1 mg/kg): >9 H and 6 (3×) and 5.5 | Urine bacteria finding 3 days after administration ([4]; two dogs (#4 and #6), no pyuria, not thought relevant to toxicity): bacteriuria | Uptake of fluorocoxib D by 5637 cells [5]: Selective uptake | Adverse events including diarrhea, vomiting, nausea, and loss of appetite ([6]; 1 mg/kg i.v. over 20 min, six research dogs): not observed | Overall safety / toxicity of single dose ([6]; 1 mg/kg i.v. over 20 min, six research dogs, 3 days observation): No evidence of toxicity; also recorded: safe dose; also recorded: no clinically relevant adverse events | Salivation during administration ([6]; one dog of six, during 20 min i.v. administration, attributed to DMSO solvent): increased salivation
